Experimental data published in patent US7928090B2, “External preparation composition” (Lion Corporation, priority 2002, dated 2011).

Tests used:
guinea pig skin = test: Continuous irritative test of guinea pig skin (Draize method); assay type: in vivo, guinea pig (Hartley series); conditions: 0.5% in ethanol/propylene glycol (7:3), 3 days straight, full marks 8 points
Experimental: Each left and right two spots (4 spots/head) of applying parts having a frame of 2 cm×2 cm were provided on the back of a shaved guinea pig (Hartley series, 7 weeks of age, female, N=10), and each 50 μL of an ethanol/propylene glycol (7:3) solution containing 0.5% of the respective acyl glucosamine derivatives shown in the following Table 1 was applied once a day on the respective frames.
A skin irritative score after application for 3 days straight was evaluated according to the following evaluation criteria (Draize method). The above irritative score was shown by the total points (full marks: 8 points) of erythema and edema.
Evaluation Criteria of Skin Irritative Score:
3: middle to strong erythema
4: very strong erythema to crust
1: very slight edema formation
2: slight edema formation
3: middle edema formation
4: strong edema formation

[1] = system: back skin of hairless mice irradiated with UVB; test: Wrinkle-improving test; assay type: in vivo, hairless mice (hos: HR-1); conditions: 0.05% in ethanol/propylene glycol (7:3), 100 μL once a day, five times a week, 8 weeks; versus control group
Experimental: (§1) Four (4) hairless mice per 1 group (hos: HR-1, 10 weeks of age, female) were irradiated on the back skin once a day with UVB at 50 mJ/cm^2 five times a week over a period of 10 weeks. After finishing irradiation, each 100 μL of an ethanol/propylene glycol (7:3) solution containing 0.05% of various acyl glucosamine derivatives shown in the following Table 3 was applied on the mouse back in a frequency of once a day and five times a week over 8 weeks.
After finishing application for 8 weeks, the degree of wrinkles was visually evaluated according to the following evaluation criteria and calculation equation. A control group applied with the ethanol/propylene glycol (7:3) solution was evaluated as a control in the same manner.
Evaluation Criteria of the Degree of Wrinkles:
Evaluation point 0: a lot of fine striations is present on the back and the flank; fine striations run in a direction from the head to the tail; and the striations appear or disappear with the motion of the mouse.
Evaluation point 1: all fine striations along the spine are not observed; a few shallow and coarse wrinkles run perpendicularly to the head-to-tail direction; and the striations appear or disappear with the motion of the mouse.
The respective bodies were evaluated by an evaluation point of a 0.5 unit to calculate an average point for the respective groups, and the wrinkle-improving rate was calculated for the respective groups according to the following equation (II). Wrinkle-improving rate (%)=[(average value of the control group−average value of a glucosamine derivative-applied group)/(average value of the control group)]×100 (II)

[2] = system: skin roughness in the inside of a forearm of a human being; test: Skin roughness-improving test (SDS-induced skin roughness); assay type: in vivo; conditions: hydrophilic ointment with 0.05%, twice a day, 3 days; conductance relative to ointment with no tested substance = 100
Experimental: A 10% SDS solution was used to artificially form a skin roughness in the inside of a forearm of a human being, and a hydrophilic ointment blended with 0.05% of various acyl glucosamine derivatives shown in the following Table 5 was applied thereon twice a day.
The skin roughness-improving degree observed 3 days later after application was evaluated using a change in a stratum corneum water content as an index. The stratum corneum water content is measured in terms of a conductance (μS). The improving degree was shown by a relative value, wherein the conductance observed when applying the hydrophilic ointment blended with no acyl glucosamine derivative was set at 100, and the skin roughness-improving rate was calculated according to the following equation (IV). Skin roughness-improving rate (%)=[(conductance observed when applying the ointment blended with the tested substance)/(conductance observed when applying the ointment blended with no tested substance)]×100 (IV)

acne patients = test: Acne-improvement evaluation; assay type: in vivo, human; conditions: essence with 0.05%, one month; for Evaluation X (worsened), number of subjects / Evaluation Δ (no change), number of subjects / Evaluation ⊚ (notably improved), number of subjects / Evaluation ◯ (improved), number of subjects: applied on face several times a day; for Acne treating effect: percentage of subjects rated improved or better
Experimental: Prepared was an essence for acne shown in the following composition example in which 0.05% of various acyl glucosamine derivatives shown in the following Table 6 was blended. An essence which was not blended with an acyl glucosamine derivative was prepared as a control.
Sixty acne patients were picked up as subjects to apply everyday the respective essences on the faces thereof several times a day, and the therapeutic effect against the acnes was visually evaluated a month later according to four degrees of the following evaluation criteria.
In the four degree evaluation described above, improvement (∘) or better effect (⊚) was regarded as “effective for treating acnes”, and the subjects showing a treating effect were shown by a numerical value (percentage).

[3] = system: back skin of hairless mice irradiated with UVB; test: Coarse texture-improving test; assay type: in vivo, hairless mice (hos: HR-1); conditions: 0.05% in ethanol/propylene glycol (7:3), 100 μL, 4 weeks; texture intersection points relative to non-irradiated group (control 24)
Experimental: as §1, with “at 40” for “at 50”, “mJ/cm^2 three” for “mJ/cm^2 five”, “of 6” for “of 10”, “Table 4 or an ethanol/propylene glycol (7:3) solution as a control” for “Table 3”, “over 4” for “over 8”
After finishing application, a replica agent (brand name SILFLO®; manufactured by UK FLEXICO DEVELOPMENTS LTD.) was used to obtain a replica of a mouse back skin. A replica of a UV-non-irradiated group (4 heads) was obtained as a control in the same manner.
The enlarged photographs of the respective replicas were taken through a macro lens (magnification: four times), and the photographs were used to evaluate “coarsening of the texture”.
The coarseness of the texture was defined by a “number of texture intersection point”, wherein a point in which three or more sulci cutis are joined is counted as one intersection point, and the number of the texture intersection points present in a square of 1 cm×1 cm was counted on the replica photograph.
An average point for the respective groups was calculated, and the texture-improving rate was calculated according to the following equation (III). Texture-improving rate (%)=[(number of texture intersection of applied group)/(number of texture intersection point of non-irradiated group)]×100 (III)

[4] = system: pigmentation on the backs of color guinea pigs; test: Whitening evaluation (UV-induced pigmentation); assay type: in vivo; parameters: key: +++: notably improved; ++: improved; +: a little improved; ±: no change; conditions: 0.05% in ethanol/propylene glycol (7:3), 30 μL once a day, five times a week, 4 weeks; visual change in pigmentation
Experimental: Back body hair of color guinea pigs were shaved by means of a hair clipper and a shaver, and they were irradiated with UV rays once a day, 4 times a week and 8 times in total, whereby 4 parts of pigmentation having an area of about 2.25 cm^2 were formed on the backs of the respective guinea pigs.
Each 30 μL of an ethanol/propylene glycol (7:3) solution containing 0.05% of various acyl glucosamine derivatives shown in the following Table 7 was applied thereon in a frequency of once a day and five times a week over 4 weeks, and a change in the pigmentation was visually evaluated according to four degrees of the following evaluation criteria. The solution containing no acyl glucosamine derivative was used for a comparative example.

[5] = Table 1, 50 μL once a day, total of erythema and edema

`CC(=O)OC[C@H]1OC(OC(C)=O)[C@H](NC(=O)/C=C(C)/C=C/C=C(C)/C=C/C2=C(C)CCCC2(C)C)[C@@H](OC(C)=O)[C@@H]1OC(C)=O` (single isomer, unassigned) [1,3,4,6-tetra-O-acetyl-N-retinoyl-D-glucosamine (9-cis isome] [listing 1 of 2 here] gave a Draize score (guinea pig skin; Table 2, by stereoisomer ratio) of 0.0 points.

`CC(=O)OC[C@H]1OC(OC(C)=O)[C@H](NC(=O)/C=C(C)/C=C/C=C(C)/C=C/C2=C(C)CCCC2(C)C)[C@@H](OC(C)=O)[C@@H]1OC(C)=O` (single isomer, unassigned) [1,3,4,6-tetra-O-acetyl-N-retinoyl-D-glucosamine (9-cis isome] [listing 2 of 2 here] showed a Draize score (guinea pig skin; Table 2, by stereoisomer ratio) of 0.0 points.

`CC(=O)OC[C@H]1OC(OC(C)=O)[C@H](NC(=O)/C=C(C)/C=C/C=C(C)/C=C/C2=C(C)CCCC2(C)C)[C@@H](OC(C)=O)[C@@H]1OC(C)=O` (single isomer, unassigned) [1,3,4,6-tetra-O-acetyl-N-retinoyl-D-glucosamine (13-cis isom] was tested, and the Draize score (guinea pig skin; Table 2, by stereoisomer ratio) was 0.0 points.

For `CC(=O)OC[C@H]1OC(OC(C)=O)[C@H](NC(=O)/C=C(C)/C=C/C=C(C)/C=C/C2=C(C)CCCC2(C)C)[C@@H](OC(C)=O)[C@@H]1OC(C)=O` (single isomer, unassigned) [1,3,4,6-tetra-O-acetyl-N-retinoyl-D-glucosamine (cis isomer/], the Draize score (guinea pig skin; Table 2, by stereoisomer ratio) was 0.0 points.

`CC(C=CC1=C(C)CCCC1(C)C)=CC=CC(C)=CC(=O)N[C@H]1C(O)O[C@H](CO)[C@@H](O)[C@@H]1O` (single isomer, unassigned) [N-retinoyl-D-glucosamine (9-cis isomer/13-cis isomer/trans i] showed a Draize score (guinea pig skin; [5]) of 0.1 points.

With `CC(C=CC1=C(C)CCCC1(C)C)=CC=CC(C)=CC(=O)N[C@H]1C(O)O[C@H](CO)[C@@H](O)[C@@H]1O` (single isomer, unassigned) [N-retinoyl-D-glucosamine (9-cis isomer/trans isomer = 0.5/99.5), N-retinoyl-D-glucosamine] the Draize score (guinea pig skin; Table 2, by stereoisomer ratio) was 0.1 points.

`CC(C=CC1=C(C)CCCC1(C)C)=CC=CC(C)=CC(=O)N[C@H]1C(O)O[C@H](CO)[C@@H](O)[C@@H]1O` (single isomer, unassigned) [N-retinoyl-D-glucosamine (13-cis isomer/trans isomer = 0.5/99.5), N-retinoyl-D-glucosamine] was tested, and the Draize score (guinea pig skin; Table 2, by stereoisomer ratio) was 0.0 points.

Work on `CC(C=CC1=C(C)CCCC1(C)C)=CC=CC(C)=CC(=O)N[C@H]1C(O)O[C@H](CO)[C@@H](O)[C@@H]1O` (single isomer, unassigned) [N-retinoyl-D-glucosamine (cis isomer/trans isomer = 0/100), N-retinoyl-D-glucosamine] yielded a Draize score (guinea pig skin; Table 2, by stereoisomer ratio) of 0.0 points.

For `CC(C=CC1=C(C)CCCC1(C)C)=CC=CC(C)=CC(=O)N[C@H]1C(O)O[C@H](CO)[C@@H](O)[C@@H]1O` (single isomer, unassigned) [N-retinoyl-D-glucosamine], the Wrinkle-improving rate [1] was 89%, the Skin roughness-improving rate [2] was 127% and the “Evaluation X (worsened), number of subjects” value (“Evaluation X (worsened)” for short) (acne patients) was 0. The “Evaluation Δ (no change), number of subjects” value (“Evaluation Δ (no change)” for short) (acne patients) was 0, the “Evaluation ⊚ (notably improved), number of subjects” value (from here on “Evaluation ⊚ (notably improved)”) (acne patients) was 4 and the “Evaluation ◯ (improved), number of subjects” value (“Evaluation ◯ (improved)” for short) (acne patients) was 2. The Acne treating effect (acne patients) was 100%, the Texture-improving rate [3] was 75% and the Whitening-improving effect [4] was “+++”.

For `CC(=O)OC[C@H]1OC(OC(C)=O)[C@H](NC(=O)/C=C(C)/C=C/C=C(C)/C=C/C2=C(C)CCCC2(C)C)[C@@H](OC(C)=O)[C@@H]1OC(C)=O` (stereo partly drawn) [1,3,4,6-tetra-O-acetyl-N-retinoyl-D-glucosamine], the Draize score (guinea pig skin; [5]) was 0.0 points.

`CCCCCCCCCCCCCCCCOCCOCCOC(=O)N[C@H]1C(O)O[C@H](CO)[C@@H](O)[C@@H]1O` (stereo partly drawn) [N-POE (2) hexadecyletheroxycarbonyl-D-glucosamine] showed a Wrinkle-improving rate [1] of 72%, a Draize score (guinea pig skin; [5]) of 0.1 points and a Skin roughness-improving rate [2] of 139%. The “Evaluation X (worsened)” value (acne patients) was 0, the “Evaluation Δ (no change)” value (acne patients) was 2 and the “Evaluation ⊚ (notably improved)” value (acne patients) was 0. The “Evaluation ◯ (improved)” value (acne patients) was 3, the Acne treating effect (acne patients) was 60% and the Texture-improving rate [3] was 89%. For the same compound, the Whitening-improving effect [4] was “++”.

In the case of `CC(C)CCCCCCCCCCCCCCC(=O)N[C@H]1C(O)O[C@H](CO)[C@@H](O)[C@@H]1O` (stereo partly drawn) [N-isostearoyl-D-glucosamine], the Draize score (guinea pig skin; [5]) is reported as 0.1 points, the “Evaluation X (worsened)” value (acne patients) is reported as 0 and the “Evaluation Δ (no change)” value (acne patients) is reported as 2. For the same compound, the “Evaluation ⊚ (notably improved)” value (acne patients) was 0 and the “Evaluation ◯ (improved)” value (acne patients) was 3.

In the case of `CCCCCCCCCCCC(=O)N[C@H]1C(O)O[C@H](CO)[C@@H](O)[C@@H]1O` (stereo partly drawn) [N-lauroyl-D-glucosamine], the Draize score (guinea pig skin; [5]) is reported as 0.1 points, the “Evaluation X (worsened)” value (acne patients) is reported as 1 and the “Evaluation Δ (no change)” value (acne patients) is reported as 1. The “Evaluation ⊚ (notably improved)” value (acne patients) was 0 and the “Evaluation ◯ (improved)” value (acne patients) was 1.

`CCCCC/C=C\C/C=C\CCCCCCCC(=O)N[C@H]1C(O)O[C@H](CO)[C@@H](O)[C@@H]1O` (stereo partly drawn) [N-linoleoyl-D-glucosamine] was tested, and the Draize score (guinea pig skin; [5]) was 0.3 points, the “Evaluation X (worsened)” value (acne patients) was 1 and the “Evaluation Δ (no change)” value (acne patients) was 3. The “Evaluation ⊚ (notably improved)” value (acne patients) was 0 and the “Evaluation ◯ (improved)” value (acne patients) was 1.

In the case of `CCCCCCCC/C=C\CCCCCCCC(=O)N[C@H]1C(O)O[C@H](CO)[C@@H](O)[C@@H]1O` (stereo partly drawn) [N-oleoyl-D-glucosamine], the Draize score (guinea pig skin; [5]) is reported as 0.2 points, the “Evaluation X (worsened)” value (acne patients) is reported as 0 and the “Evaluation Δ (no change)” value (acne patients) is reported as 2. For the same compound, the “Evaluation ⊚ (notably improved)” value (acne patients) was 0 and the “Evaluation ◯ (improved)” value (acne patients) was 3.

`CC1=C(/C=C/C(C)=C/C=C/C(C)=C/C(=O)O)C(C)(C)CCC1` [Retinoic acid, reference compound] was tested, and the Draize score (guinea pig skin; [5]) was 8.0 points.
